Experimental data as given in patent publication US7595300B2, “7-quinolyl ketolide antibacterial agents” (priority 2005, dated 2009).
Read-outs that look alike come from different tables or passages of the source.

Key:
anesthetized rats = experiment: Cardiovascular safety, QT interval in anesthetized rats, i.v. bolus; format: in vivo, rat; conditions: rat
Procedure: Total doses of drug (0.47, 0.94, 1.88, 3.75, 7.5, and 15 mg/kg) or equivalent volumes of vehicle were administered incrementally as an i.v. bolus to groups of 6 anesthetized rats or guinea pigs at 0, 15, 30, 45, 60, and 75 minutes. Hemodynamic parameters including mean arterial pressure (MAP) and heart rate (HR), and ECG parameters (QT and PR intervals and QRS duration) were recorded. For the rat, injection of vehicle gave a 16% increase in QT interval over baseline. For the guinea pig, injection of vehicle gave a 3% increase in QT interval over baseline.

[1] = tested on: cryopreserved human hepatocytes; conditions: 4 h
Source text: In a second experiment, the hepatotoxicity of compound (III) was estimated using cryopreserved human hepatocytes pooled from four donors, measuring leakage of cellular lactate dehydrogenase (LDH). Each donor was selected for the study based on the activity of cytochrome P450 (phase I) and uridine diphosphoglucuronosyl transferases (phase II). Hepatocytes were initially prepared from human livers by collagenase perfusion and subsequently cryogenically frozen. Viable cryopreserved hepatocytes were enriched in accordance with BD Biosciences Discovery Labware SOP HP-10. Hepatocytes were rapidly thawed, pooled and incubated in Williams' E medium at a density of 2×10^6 cells/ml at 37° C. in an incubator for 30 min. After incubation, the viable cells were separated with 24% Percoll gradient and resuspended in WME at a density of 1×10^6 cells/ml. Initial viability was determined by trypan blue exclusion. Hepatocytes were incubated in a 24-well plate and each well contained 0.25×10^6 cells in 0.5 ml of WME medium. Three wells were used for determination of total LDH activity (cells+media) and the background activity (incubation media only) at the 0 time point. Briefly, a 100 μl aliquot of cell suspensions from these wells was immediately taken and rapidly centrifuged at 14,000 rpm for 15 seconds. The supernatants were transferred to microcentrifuge tubes and stored at ≦4° C. for measurement of LDH activity present in medium at the 0 time point. Another 100 μl aliquot of cell suspension from same wells was removed, mixed with 100 μl of 0.4% Triton and stored at ≦4° C. for measurement of total LDH activity.
Hepatocytes in other wells were incubated with test article at the concentrations of 200, 67, 22, 7.4, 2.5 and 0.82 μM. […] Hepatocytes were exposed to the test substance and the positive control for 4 hours. After incubation, 100 μl aliquots of cell suspensions were taken and rapidly centrifuged at 14,000 rpm for 15 seconds. The supernatants were transferred to microcentrifuge tubes and stored at ≦4° C. for measurement of LDH activity in incubation medium.
LDH activity in both total (medium+cells) and medium was determined by monitoring the enzymatic formation of NADH from NAD^+ in the presence of L-lactic acid. Briefly, post-centrifugation supernatants were diluted 1:40 with phosphate-buffered saline (pH 7.4). A 100 μl aliquot was mixed with 100 μl LDH reagent containing 7.5 mM NAD^+, 50 mM L-lactic acid in 250 mM Tris-HCl buffer (pH 8.9) in a 96-well plate. The increase in fluorescence due to the formation of NADH were kinetically monitored at Ext. 360 nm, Em. 460 nm, using a Fluorescence plate reader. The percent LDH leakage from cells was calculated by comparing incubation medium values with total LDH activity (see Equation below). The cell viability at each concentration of test articles was reported. % LDH leakage=(LDH activity in medium sample/total LDH activity)*100 The data are summarized in Table 17.

in vivo = conditions: male, beagle, dog, iv; for AUC: AUCtot
Procedure: The dosing route was an intravenous infusion jugular vein access). The infusion was accomplished using a CADD Prizm® ambulatory infusion pump attached to a jacket worn by the dog. The dose duration for the intravenous infusion was 30 min for all doses administered, except the last dose (30 mg/kg) where the infusion period was extended to 45 min to accommodate the larger dose volume required for this dose. The vehicle dose and diluent for the test article was 0.05-M sodium citrate in sterile water for injection.
There was one treatment group of four non-naïve dogs and the study was comprised of both pharmacokinetic and telemetry phases, as summarized in the dose administration table for compound (III) (Table 16) below. At least one week was given between dosings to allow clearance of the drug.
For the pharmacokinetic (PK) phase, the blood collection intervals were: predose, 10, 20, 30, (end dose time), 35, 45, 60, 90, 150, 270, 390, 510, 1440, and 2880 min relative to the start of the infusion. Whole blood (˜2 mL) was collected into Vacutainerss' (BD, Franklin, N.J.) containing sodium heparin as the anticoagulant agent. Blood samples were centrifuged at a speed of 3000 rpm, a temperature of 4° C. and a run time of 10 min. Plasma samples were transferred to amber glass vials and analyzed by LC/MS/MS to determine drug concentrations.

SMILES: CC1CC(N(C)C)C(O)C(O[C@@H]2[C@@H](C)C(=O)[C@](C)(F)C(=O)O[C@H](CCF)[C@@]3(C)OC(=O)N[C@@H]3[C@@H](C)C(=O)[C@H](C)C[C@@]2(C)OC/C=C/c2ccc3cccnc3c2)O1 (stereo partly drawn) [Compound (III), 6-O-(1-(7-quinolyl)-3-propenyl)-11-amino-11-deoxy-3-(descladinosyl)-3-oxo-2,15-difluoroerythromycin A-11,12-cyclic carbamate]
- effect on the QT interval in the rat (anesthetized rats): did not prolong the QT interval
- LDH leakage (%) ([1]; 0.82 μM): 6.1 ± 0.63%
- Viability (%) ([1]; 0.82 μM): 94 ± 0.63%
- LDH leakage (%) ([1]; 2.5 μM): 3.9 ± 2.8%
- Viability (%) ([1]; 2.5 μM): 96 ± 2.8%
- LDH leakage (%) ([1]; 7.4 μM): 10 ± 2.9%
- Viability (%) ([1]; 7.4 μM): 90 ± 2.9%
- LDH leakage (%) ([1]; 22 μM): 12 ± 0.74%
- Viability (%) ([1]; 22 μM): 88 ± 0.74%
- LDH leakage (%) ([1]; 67 μM): 6.7 ± 1.3%
- Viability (%) ([1]; 67 μM): 93 ± 1.3%
- LDH leakage (%) ([1]; 200 μM): 7.6 ± 4.2%
- Viability (%) ([1]; 200 μM): 92 ± 4.2%
- Tmax (in vivo; 11 mg/kg): 0.46 ± 0.08 h
- half-life (in vivo; 11 mg/kg): 5.36 ± 0.4 h
- AUC (in vivo; 11 mg/kg): 33900 ± 3190 ng·h/mL
- Cmax (in vivo; 11 mg/kg, Mean Cmax): 6000 ± 1130 ng/mL
- AUCtot (in vivo; 15 mg/kg): 36047 ± 22104 ng·h/mL
- mean Cmax (in vivo; 15 mg/kg): 6206 ± 3144 ng/mL
- AUC (in vivo; 15 mg/kg): 43900 ± 23100 ng·h/mL
- Cmax (in vivo; 15 mg/kg, mean Cmax): 7520 ± 3310 ng/mL
